# Laboratory results reported in patent US7858806B2, “Crystal form of 5-hydroxy-1-methylhydantoin” (Nippon Zoki Pharmaceutical Co., Ltd., priority 2002, dated 2010).
# Entries after “also recorded” stand apart in the source; their conditions may differ.
# Experiments:
# Format in all cases: physicochemical
# Solubility in water = assay: Solubility in water
# [1] = Measurement of bulk density (graduated cylinder, before and after tight packing); conditions: 40 g in graduated cylinder; for Bulk Density After Tight Packing: after patting until volume unchanged
# Procedure: Each 40 g of the I-form crystals produced in Reference Example 1 and the II-form crystals produced in Example 2 were placed in a graduated cylinder to measure the volume whereby bulk density was calculated. After that, each graduated cylinder was lightly patted by hand under the same condition until the volume of the dry powder became unchanged so that the crystals were tightly packed. The volume after the tight packing was measured and bulk density was calculated.
# [2] = Adhesion onto solid surface during handling; conditions: II-form compared with I-form crystals, after various handlings
# Procedure: In addition, in the II-form crystals of the present invention, the bulk density is higher than in the I-form crystals and the volume for the same weight is small whereby it is now possible to manufacture small tablets and so to provide the tablets which are easily administered to patients. The advantage of high bulk density is also advantageous in terms of storage and handling when production is conducted in an industrial scale. Further, it has been found after various handlings of both II-form crystals and I-form crystals that adhesion onto the solid surface such as glass wall is lower in the II-form crystals than in the I-form crystals. Accordingly, in the case of the II-form crystals, loss during the manufacture can be reduced and labor such as cleaning and checking for removal of adhered things to the manufacturing devices and apparatuses can be reduced as well.
# [3] = Stability of the crystal form
compound,measurement,setting,value
"CN1C(=O)NC(=O)C1O (stereo not shown) [5-hydroxy-1-methylhydantoin, 5-hydroxy-1-methylimidazolidin-2,4-dione]",solubility in water,Solubility in water,very highly soluble in water; also recorded: very easily soluble in water
"CN1C(=O)NC(=O)C1O (stereo not shown) [I-form crystals, 5-hydroxy-1-methylimidazolidin-2,4-dione, reference compound]",Bulk Density After Tight Packing,[1]; listed as I-form Crystals,0.46 g/mL
same,Bulk Density Before Tight Packing,[1]; listed as I-form Crystals,0.35 g/mL
"CN1C(=O)NC(=O)C1O (stereo not shown) [II-form crystals, 5-hydroxy-1-methylimidazolidin-2,4-dione]",Bulk Density After Tight Packing,[1]; listed as II-form Crystals,0.64 g/mL
same,Bulk Density Before Tight Packing,[1]; listed as II-form Crystals,0.54 g/mL
same,adhesion onto the solid surface such as glass wall,[2],lower
same,stability,[3],sufficient stability
